Source: ChEMBL document CHEMBL3885861, “Open TG-GATES”

Species: Rattus norvegicus
Experiment: Open TG-GATES - Regimen: Daily Repeat
Type: toxicity, organism-based, Sprague-Dawley
Set-up: regimen Daily Repeat, gender Male, age 6 weeks
Conditions: in vivo, po, route gavage; for Eos / Hb / Ht / Lym / MCH / MCHC / MCV / Mono / Neu / Plat / RBC / Ret / WBC / APTT / Bas / PT: tissue Blood; for KIDNEY_L / KIDNEY_R / KIDNEY_TOTAL: tissue Kidney; for LIVER: tissue Liver; for ALT / AST / BUN / CRE / Ca / DBIL / GLC / IP / K / LDH / Na / PL / RALB / TBIL / TC / TG / TP / gamma-GTP / ALP: tissue Plasma
[1] = 300 mg/kg, 72 h, dose level Middle, time 3 day
[2] = 300 mg/kg, […], dose level Middle, time 7 day
[3] = 300 mg/kg, […], dose level Middle, time 14 day
[4] = 300 mg/kg, […], dose level Middle, time 28 day
[5] = 1000 mg/kg, 72 h, dose level High, time 3 day
[6] = 1000 mg/kg, […], dose level High, time 7 day
[7] = 1000 mg/kg, […], dose level High, time 14 day
[8] = 1000 mg/kg, […], dose level High, time 28 day

C[C@H](CS)C(=O)N1CCC[C@H]1C(=O)O [CAPTOPRIL]
Eos [1]: 1.2%
Hb [1]: 13.3 g/dL
Ht [1]: 40.2%
Lym [1]: 79.4%
MCH [1]: 21.4 pg
MCHC [1]: 33.1%
MCV [1]: 64.5 fL
Mono [1]: 4.2%
Neu [1]: 15.2%
Plat [1]: 111.4 x10_4/uL
RBC [1]: 623.2 x10_4/ul
Ret [1]: 7.7%
WBC [1]: 92.7 x10_2/uL
KIDNEY_L [1]: 1.1 g
KIDNEY_R [1]: 1.1 g
KIDNEY_TOTAL [1]: 2.2 g
LIVER [1]: 12.3 g
ALT [1]: 40.6 IU/L
AST [1]: 61 IU/L
BUN [1]: 17.8 mg/dL
CRE [1]: 0.5 mg/dL
Ca [1]: 11.5 mg/dL
DBIL [1]: 0.022 mg/dL
GLC [1]: 195.4 mg/dL
IP [1]: 8.8 mg/dL
K [1]: 5.1 meq/L
LDH [1]: 89 IU/L
Na [1]: 136 meq/L
PL [1]: 143.4 mg/dL
RALB [1]: 4.2 g/dL
TBIL [1]: 0.4 mg/dL
TC [1]: 76 mg/dL
TG [1]: 73.8 mg/dL
TP [1]: 6.1 g/dL
gamma-GTP [1]: 0.8 IU/L
TERMINAL_BW [2]: 259.5 g
TERMINAL_BW [3]: 288.5 g
TERMINAL_BW [4]: 322 g
APTT [2]: 16.4 s
Bas [2]: 0%
Eos [2]: 1.2%
Hb [2]: 13.3 g/dL
Ht [2]: 39.7%
Lym [2]: 85.2%
MCH [2]: 21.2 pg
MCHC [2]: 33.4%
MCV [2]: 63.6 fL
Mono [2]: 4.6%
Neu [2]: 9.2%
Plat [2]: 127.2 x10_4/uL
RBC [2]: 625.8 x10_4/ul
Ret [2]: 4.7%
WBC [2]: 127.6 x10_2/uL
APTT [3]: 16.6 s
Bas [3]: 0%
Eos [3]: 1%
Hb [3]: 13 g/dL
Ht [3]: 38.6%
Lym [3]: 83.2%
MCH [3]: 20.5 pg
MCHC [3]: 33.7%
MCV [3]: 60.7 fL
Mono [3]: 4%
Neu [3]: 11.4%
PT [3]: 11.7 s
Plat [3]: 128.4 x10_4/uL
RBC [3]: 636.4 x10_4/ul
Ret [3]: 4.4%
WBC [3]: 183.2 x10_2/uL
APTT [4]: 15.5 s
Bas [4]: 0%
Eos [4]: 1%
Hb [4]: 14 g/dL
Ht [4]: 41.6%
Lym [4]: 82.2%
MCH [4]: 19.3 pg
MCHC [4]: 33.7%
MCV [4]: 57.4 fL
Mono [4]: 3.6%
Neu [4]: 13.6%
PT [4]: 11.9 s
Plat [4]: 112.2 x10_4/uL
RBC [4]: 724.6 x10_4/ul
Ret [4]: 2.9%
WBC [4]: 165.2 x10_2/uL
KIDNEY_L [2]: 1.2 g
KIDNEY_R [2]: 1.2 g
KIDNEY_TOTAL [2]: 2.3 g
KIDNEY_L [3]: 1.2 g
KIDNEY_R [3]: 1.3 g
KIDNEY_TOTAL [3]: 2.5 g
KIDNEY_L [4]: 1.3 g
KIDNEY_R [4]: 1.4 g
KIDNEY_TOTAL [4]: 2.7 g
LIVER [2]: 11.7 g
LIVER [3]: 12.4 g
LIVER [4]: 12.4 g
ALT [2]: 32.8 IU/L
AST [2]: 63.2 IU/L
BUN [2]: 20.6 mg/dL
CRE [2]: 0.6 mg/dL
Ca [2]: 11 mg/dL
DBIL [2]: 0.006 mg/dL
GLC [2]: 192 mg/dL
IP [2]: 8 mg/dL
K [2]: 4.8 meq/L
LDH [2]: 109.6 IU/L
Na [2]: 138.2 meq/L
PL [2]: 132 mg/dL
RALB [2]: 3.8 g/dL
TBIL [2]: 0.3 mg/dL
TC [2]: 72.8 mg/dL
TG [2]: 73.4 mg/dL
TP [2]: 5.8 g/dL
gamma-GTP [2]: 2.2 IU/L
ALP [3]: 824.2 IU/L
ALT [3]: 40.2 IU/L
AST [3]: 66.6 IU/L
BUN [3]: 24.4 mg/dL
CRE [3]: 0.6 mg/dL
DBIL [3]: 0.012 mg/dL
GLC [3]: 203.6 mg/dL
IP [3]: 7.8 mg/dL
K [3]: 4.6 meq/L
LDH [3]: 86.6 IU/L
Na [3]: 135.2 meq/L
PL [3]: 151 mg/dL
RALB [3]: 3.8 g/dL
TBIL [3]: 0.3 mg/dL
TC [3]: 81.4 mg/dL
TG [3]: 67 mg/dL
TP [3]: 5.9 g/dL
gamma-GTP [3]: 1.4 IU/L
ALP [4]: 617.4 IU/L
ALT [4]: 35.4 IU/L
AST [4]: 65.8 IU/L
BUN [4]: 30.8 mg/dL
CRE [4]: 0.6 mg/dL
DBIL [4]: 0.024 mg/dL
GLC [4]: 191.2 mg/dL
IP [4]: 7.4 mg/dL
K [4]: 4.6 meq/L
Na [4]: 136.8 meq/L
PL [4]: 156.6 mg/dL
RALB [4]: 4 g/dL
TBIL [4]: 0.4 mg/dL
TC [4]: 84.8 mg/dL
TG [4]: 79 mg/dL
TP [4]: 6.1 g/dL
gamma-GTP [4]: 0.4 IU/L
TERMINAL_BW [5]: 233.8 g
APTT [5]: 16.1 s
Bas [5]: 0%
Eos [5]: 1.2%
Hb [5]: 13.3 g/dL
Ht [5]: 39.9%
Lym [5]: 80.6%
MCH [5]: 21.3 pg
MCHC [5]: 33.2%
MCV [5]: 64 fL
Mono [5]: 5.2%
Neu [5]: 13.4%
PT [5]: 11.1 s
Plat [5]: 122.3 x10_4/uL
RBC [5]: 623.8 x10_4/ul
Ret [5]: 6.2%
KIDNEY_L [5]: 1.1 g
KIDNEY_R [5]: 1.1 g
KIDNEY_TOTAL [5]: 2.2 g
LIVER [5]: 11 g
ALP [5]: 971.8 IU/L
ALT [5]: 40.6 IU/L
AST [5]: 63 IU/L
BUN [5]: 22.6 mg/dL
CRE [5]: 0.5 mg/dL
Ca [5]: 11.2 mg/dL
DBIL [5]: 0.016 mg/dL
GLC [5]: 193.4 mg/dL
IP [5]: 8.2 mg/dL
K [5]: 5 meq/L
LDH [5]: 90.4 IU/L
Na [5]: 135.2 meq/L
PL [5]: 148.8 mg/dL
RALB [5]: 3.9 g/dL
TBIL [5]: 0.4 mg/dL
TC [5]: 82.4 mg/dL
TG [5]: 93.4 mg/dL
TP [5]: 5.8 g/dL
gamma-GTP [5]: 1.4 IU/L
TERMINAL_BW [6]: 249.2 g
TERMINAL_BW [7]: 310.3 g
TERMINAL_BW [8]: 359.7 g
APTT [6]: 16.3 s
Bas [6]: 0%
Eos [6]: 1.2%
Hb [6]: 12.7 g/dL
Ht [6]: 37.9%
Lym [6]: 82.4%
MCH [6]: 21.3 pg
MCHC [6]: 33.5%
MCV [6]: 63.6 fL
Mono [6]: 4.6%
Neu [6]: 11.8%
Plat [6]: 123.8 x10_4/uL
RBC [6]: 595.6 x10_4/ul
Ret [6]: 4%
WBC [6]: 141 x10_2/uL
APTT [7]: 16.7 s
Bas [7]: 0%
Eos [7]: 1.2%
Hb [7]: 12.7 g/dL
Ht [7]: 37.6%
Lym [7]: 81.8%
MCH [7]: 20.6 pg
MCHC [7]: 33.6%
MCV [7]: 61.4 fL
Mono [7]: 4.6%
Neu [7]: 12.4%
PT [7]: 11.5 s
Plat [7]: 122.1 x10_4/uL
RBC [7]: 614 x10_4/ul
Ret [7]: 3.1%
WBC [7]: 160.2 x10_2/uL
APTT [8]: 16.4 s
Bas [8]: 0%
Eos [8]: 1.2%
Hb [8]: 13.4 g/dL
Ht [8]: 40.3%
Lym [8]: 90.2%
MCH [8]: 20 pg
MCHC [8]: 33.2%
MCV [8]: 60.1 fL
Mono [8]: 2.8%
Neu [8]: 6%
PT [8]: 11.9 s
Plat [8]: 96.2 x10_4/uL
RBC [8]: 671.8 x10_4/ul
Ret [8]: 3.7%
WBC [8]: 236.5 x10_2/uL
KIDNEY_L [6]: 1.2 g
KIDNEY_R [6]: 1.3 g
KIDNEY_TOTAL [6]: 2.5 g
KIDNEY_L [7]: 1.3 g
KIDNEY_R [7]: 1.4 g
KIDNEY_TOTAL [7]: 2.7 g
KIDNEY_L [8]: 1.5 g
KIDNEY_R [8]: 1.6 g
KIDNEY_TOTAL [8]: 3.1 g
LIVER [7]: 13.5 g
LIVER [8]: 15.1 g
ALP [6]: 755.6 IU/L
ALT [6]: 32.2 IU/L
AST [6]: 53.8 IU/L
BUN [6]: 46.4 mg/dL
CRE [6]: 0.6 mg/dL
DBIL [6]: 0.012 mg/dL
GLC [6]: 192.8 mg/dL
IP [6]: 7.7 mg/dL
K [6]: 5.2 meq/L
LDH [6]: 78.6 IU/L
Na [6]: 136.8 meq/L
PL [6]: 141.4 mg/dL
RALB [6]: 3.5 g/dL
TBIL [6]: 0.4 mg/dL
TC [6]: 88.2 mg/dL
TG [6]: 52.6 mg/dL
TP [6]: 5.6 g/dL
gamma-GTP [6]: 2 IU/L
ALP [7]: 859.4 IU/L
ALT [7]: 35.2 IU/L
AST [7]: 58.8 IU/L
BUN [7]: 38.8 mg/dL
CRE [7]: 0.6 mg/dL
DBIL [7]: 0.008 mg/dL
GLC [7]: 191.8 mg/dL
IP [7]: 7.8 mg/dL
K [7]: 5 meq/L
LDH [7]: 78.2 IU/L
Na [7]: 133.8 meq/L
PL [7]: 151.8 mg/dL
RALB [7]: 3.7 g/dL
TBIL [7]: 0.4 mg/dL
TC [7]: 80.6 mg/dL
TG [7]: 85.6 mg/dL
TP [7]: 5.7 g/dL
gamma-GTP [7]: 1.2 IU/L
ALP [8]: 768 IU/L
ALT [8]: 45 IU/L
AST [8]: 71.5 IU/L
BUN [8]: 32 mg/dL
CRE [8]: 0.6 mg/dL
DBIL [8]: 0.015 mg/dL
GLC [8]: 207 mg/dL
IP [8]: 7.7 mg/dL
K [8]: 4.6 meq/L
LDH [8]: 110.2 IU/L
Na [8]: 135.8 meq/L
PL [8]: 127.8 mg/dL
RALB [8]: 3.6 g/dL
TBIL [8]: 0.5 mg/dL
TC [8]: 69 mg/dL
TG [8]: 72.8 mg/dL
TP [8]: 5.7 g/dL
gamma-GTP [8]: 0.8 IU/L
